Data taken from publication PMC10139140, “Synthesis of Novel 2-(Cyclopentylamino)thiazol-4(5H)-one Derivatives with Potential Anticancer, Antioxidant, and 11β-HSD Inhibitory Activities” (International Journal of Molecular Sciences, 2023).
Each block holds one compound with its values, some of them ahead of it.

How the values were obtained:
11β-HSD1 = target: T1, 11β-HSD1 (Homo sapiens, UniProt P28845); experiment: Inhibition of 11β-HSD1 (cortisone to cortisol, human liver microsomes, cortisol ELISA); format: biochemical; conditions: for inhibition at 10 µM: 2.5 h, 37 °C
T1 construct: Human liver microsomes were used as a source of 11β-HSD1 enzyme; tissue XenoTech Lot No. 1410013; host or cells: pooled human liver microsomes, mixed gender
Method in brief: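 Human liver microsomal conversion of cortisone to cortisol, incubated 2.5 h at 37 °C and stopped with 18β-glycyrrhetinic acid. Cortisol was quantified by ELISA against inhibitor-free controls.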

11β-HSD2 = target: T2, 11β-HSD2 (Homo sapiens, UniProt P80365); experiment: Inhibition of 11β-HSD2 (cortisol to cortisone, human microsomes, cortisol ELISA); format: biochemical; conditions: 2.5 h, 37 °C
T2 construct: Human liver microsomes were used as a source of 11β-HSD2 enzyme; tissue XenoTech Lot No. 1710160; host or cells: human kidney microsomes, mixed gender (method text says human liver microsomes)
T2 sequence (P80365 1-405): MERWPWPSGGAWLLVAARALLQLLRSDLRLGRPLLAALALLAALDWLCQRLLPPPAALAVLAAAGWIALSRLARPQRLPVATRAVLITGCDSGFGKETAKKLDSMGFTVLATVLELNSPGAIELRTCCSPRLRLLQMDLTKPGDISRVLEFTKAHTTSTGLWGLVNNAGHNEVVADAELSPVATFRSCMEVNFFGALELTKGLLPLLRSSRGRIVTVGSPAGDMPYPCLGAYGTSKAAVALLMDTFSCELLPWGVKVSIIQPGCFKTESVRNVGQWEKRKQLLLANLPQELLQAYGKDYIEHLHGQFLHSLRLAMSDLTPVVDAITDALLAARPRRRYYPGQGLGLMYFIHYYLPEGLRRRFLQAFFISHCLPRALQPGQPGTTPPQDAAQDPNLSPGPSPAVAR
Experimental: The resulting solution with a final volume of 100 µL was incubated for 2.5 h at 37 °C. […] The level of unreacted cortisol was measured by a commercially available ELISA kit.

BJ cells = experiment: MTS metabolic activity assay, BJ cells; format: cell-based; conditions: Homo sapiens, 72 h, read-out: Cell metabolic activity (MTS), % of untreated control
Experimental: (§1) The BJ (CRL-2522), Caco-2 (HTB-37), PANC-1 (CRL-1469), U-118 MG (HTB-15), SK-MEL-30 (ACC 151), and MDA-MB-231 (HTB-26) cell lines were purchased from ATCC (Manassas, VA, USA) or DSMZ (Braunschweig, GERMANY). Cells were cultured in accordance with manufacturers' recommendations in a DMEM, MEM, or RPMI-1640 (Sigma, Saint Louis, MO, USA; Gibco, Waltham, MA, USA), supplemented with 10% FBS, except for Caco-2 (20%) (Thermo Fisher Scientific, Waltham, MA, USA) and 1% antibiotic mix solution (penicillin, streptomycin; Thermo Fisher Scientific, Waltham, MA, USA) in a humidified atmosphere with 5% CO2 at 37 °C. All cell lines were cultured in T75 cell culture flasks or cell culture dishes to reach 80–90% confluency and seeded at a standard density of 5 × 10^3 cells/0.32 cm^2, except for BJ cells at 2 × 10^3 cells/0.32 cm^2.
(§2) The MTS ((MTS: 3-(4,5-dimethylthiazol-2-yl)-5-(3-carboxymethoxyphenyl)-2-(4-sulfophenyl)-2H-tetrazolium)) assay was performed following previously reported method. Briefly, cells were seeded at a standard density into 96-well flat-bottom plates and incubated for 24 h, followed by the treatment. The various concentrations of compounds were prepared and treated for the next 72 h. MTS solution was added for 3h and incubated at standard conditions, protected from light. Finally, the absorbance was read at […] and 620 nm wavelengths using a Synergy H1 microplate reader (BioTek, Santa Clara, CA, USA). The results are presented as %, while untreated control cells were considered 100%.

[1] = tested on: human colon carcinoma (Caco-2); experiment: MTS metabolic activity assay, Caco-2 cells; format: cell-based; conditions: Homo sapiens, 72 h, read-out: Cell metabolic activity (MTS), % of untreated control; for viability at 10 µM: Caco-2, 10 µM; for viability at 20 µM: Caco-2, 20 µM; for viability at 50 µM: Caco-2, 50 µM; for viability at 100 µM: Caco-2, 100 µM; for viability at 200 µM: Caco-2, 200 µM; for viability at 300 µM: Caco-2, 300 µM; for viability at 500 µM: Caco-2, 500 µM
Experimental: as §1, §2

[2] = tested on: human pancreatic carcinoma (PANC-1); experiment: MTS metabolic activity assay, PANC-1 cells; format: cell-based; conditions: for viability at 10 µM / viability at 20 µM / viability at 50 µM / viability at 100 µM / viability at 200 µM / viability at 300 µM / viability at 500 µM: Homo sapiens, 72 h, read-out: Cell metabolic activity (MTS), % of untreated control; for viability at 10 µM: PANC-1, 10 µM; for viability at 20 µM: PANC-1, 20 µM; for viability at 50 µM: PANC-1, 50 µM; for viability at 100 µM: PANC-1, 100 µM; for viability at 200 µM: PANC-1, 200 µM; for viability at 300 µM: PANC-1, 300 µM; for viability at 500 µM: PANC-1, 500 µM
Experimental: as §1, §2

glioma (U-118 MG) = experiment: MTS metabolic activity assay, U-118 MG cells; format: cell-based; conditions: 72 h; for viability at 10 µM / viability at 20 µM / viability at 50 µM / viability at 100 µM / viability at 200 µM / viability at 300 µM / viability at 500 µM: Homo sapiens, U-118-MG, U118-MG, read-out: Cell metabolic activity (MTS), % of untreated control
Experimental: as §1, §2

[3] = tested on: skin melanoma (SK-MEL-30); experiment: MTS metabolic activity assay, SK-MEL-30 cells; format: cell-based; conditions: 72 h; for viability at 10 µM / viability at 20 µM / viability at 50 µM / viability at 100 µM / viability at 200 µM / viability at 300 µM / viability at 500 µM: Homo sapiens, read-out: Cell metabolic activity (MTS), % of untreated control; for viability at 10 µM: SK-MEL-30, 10 µM; for viability at 20 µM: SK-MEL-30, 20 µM; for viability at 50 µM: SK-MEL-30, 50 µM; for viability at 100 µM: SK-MEL-30, 100 µM; for viability at 200 µM: SK-MEL-30, 200 µM; for viability at 300 µM: SK-MEL-30, 300 µM; for viability at 500 µM: SK-MEL-30, 500 µM
Experimental: as §1, §2

[4] = tested on: human breast carcinoma (MDA-MB-231); experiment: MTS metabolic activity assay, MDA-MB-231 cells; format: cell-based; conditions: Homo sapiens, 72 h, read-out: Cell metabolic activity (MTS), % of untreated control; for viability at 10 µM: MDA-MB-231, 10 µM; for viability at 20 µM: MDA-MB-231, 20 µM; for viability at 50 µM: MDA-MB-231, 50 µM; for viability at 100 µM: MDA-MB-231, 100 µM; for viability at 200 µM: MDA-MB-231, 200 µM; for viability at 300 µM: MDA-MB-231, 300 µM; for viability at 500 µM: MDA-MB-231, 500 µM
Experimental: as §1, §2

T1 sequence (P28845 whole entry): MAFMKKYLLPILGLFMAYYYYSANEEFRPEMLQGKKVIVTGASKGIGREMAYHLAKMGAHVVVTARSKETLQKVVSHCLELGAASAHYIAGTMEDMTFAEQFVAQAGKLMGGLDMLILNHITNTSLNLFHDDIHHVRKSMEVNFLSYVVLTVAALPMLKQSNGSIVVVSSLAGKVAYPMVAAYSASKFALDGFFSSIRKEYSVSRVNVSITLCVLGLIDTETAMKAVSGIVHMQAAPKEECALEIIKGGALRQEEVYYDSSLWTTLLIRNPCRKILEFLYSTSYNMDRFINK

- IC50 (11β-HSD1): 4400 ± 150 nM
- inhibition at 10 µM (11β-HSD1): 53.2 ± 5.22%
- inhibition at 10 µM (11β-HSD2): 36.6 ± 1.5%
SMILES: CC1(C)SC(NC2CCCC2)=NC1=O [Compound 3e, 2-(cyclopentylamino)-5,5-dimethylthiazol-4(5H)-one]
- viability at 10 µM (BJ cells): 107%
- viability at 20 µM (BJ cells): 109%
- viability at 50 µM (BJ cells): 112%
- viability at 100 µM (BJ cells): 114%
- viability at 200 µM (BJ cells): 117%
- viability at 300 µM (BJ cells): 119%
- viability at 500 µM (BJ cells): 108%
- viability at 10 µM [1]: 99.9%
- viability at 20 µM [1]: 86.5%
- viability at 50 µM [1]: 86.7%
- viability at 100 µM [1]: 83.4%
- viability at 200 µM [1]: 80.2%
- viability at 300 µM [1]: 75.6%
- viability at 500 µM [1]: 64.1%
- viability at 10 µM [2]: 110%
- viability at 20 µM [2]: 101%
- viability at 50 µM [2]: 110%
- viability at 100 µM [2]: 112%
- viability at 200 µM [2]: 120%
- viability at 300 µM [2]: 122%
- viability at 500 µM [2]: 127%
- viability at 10 µM (glioma (U-118 MG)): 110%
- viability at 20 µM (glioma (U-118 MG)): 110%
- viability at 50 µM (glioma (U-118 MG)): 116%
- viability at 100 µM (glioma (U-118 MG)): 111%
- viability at 200 µM (glioma (U-118 MG)): 112%
- viability at 300 µM (glioma (U-118 MG)): 109%
- viability at 500 µM (glioma (U-118 MG)): 106%
- viability at 10 µM [3]: 102%
- viability at 20 µM [3]: 100%
- viability at 50 µM [3]: 103%
- viability at 100 µM [3]: 106%
- viability at 200 µM [3]: 106%
- viability at 300 µM [3]: 104%
- viability at 500 µM [3]: 104%
- viability at 10 µM [4]: 96.3%
- viability at 20 µM [4]: 100%
- viability at 50 µM [4]: 103%
- viability at 100 µM [4]: 95.7%
- viability at 200 µM [4]: 93.7%
- viability at 300 µM [4]: 90.6%
- viability at 500 µM [4]: 85.2%

- IC50 (11β-HSD1): 1100 ± 80 nM
- inhibition at 10 µM (11β-HSD1): 64.3 ± 5.07%
- inhibition at 10 µM (11β-HSD2): 36.5 ± 3.07%
SMILES: O=C1N=C(NC2CCCC2)SC1c1ccccc1 (stereo not drawn) [Compound 3f, 2-(cyclopentylamino)-5-phenylthiazol-4(5H)-one]
- viability at 10 µM (BJ cells): 107%
- viability at 20 µM (BJ cells): 102%
- viability at 50 µM (BJ cells): 102%
- viability at 100 µM (BJ cells): 106%
- viability at 200 µM (BJ cells): 105%
- viability at 300 µM (BJ cells): 106%
- viability at 500 µM (BJ cells): 96.8%
- viability at 10 µM [1]: 91.3%
- viability at 20 µM [1]: 90.4%
- viability at 50 µM [1]: 93.7%
- viability at 100 µM [1]: 87.4%
- viability at 200 µM [1]: 89.7%
- viability at 300 µM [1]: 87.1%
- viability at 500 µM [1]: 75.2%
- viability at 10 µM [2]: 110%
- viability at 20 µM [2]: 102%
- viability at 50 µM [2]: 117%
- viability at 100 µM [2]: 117%
- viability at 200 µM [2]: 137%
- viability at 300 µM [2]: 141%
- viability at 500 µM [2]: 141%
- highest increase in proliferation (cell metabolic activity) ([2]; PANC-1, 72 h, range given for the named substances together): 115 to 144%
- viability at 10 µM (glioma (U-118 MG)): 116%
- viability at 20 µM (glioma (U-118 MG)): 114%
- viability at 50 µM (glioma (U-118 MG)): 114%
- viability at 100 µM (glioma (U-118 MG)): 115%
- viability at 200 µM (glioma (U-118 MG)): 110%
- viability at 300 µM (glioma (U-118 MG)): 106%
- viability at 500 µM (glioma (U-118 MG)): 86.8%
- highest increase in proliferation (cell metabolic activity) (glioma (U-118 MG); U-118 MG, range given for the named substances together): 115 to 144%
- viability at 10 µM [3]: 96.1%
- viability at 20 µM [3]: 98.2%
- viability at 50 µM [3]: 99.7%
- viability at 100 µM [3]: 100%
- viability at 200 µM [3]: 93.8%
- viability at 300 µM [3]: 73.2%
- viability at 500 µM [3]: 50%
- cell viability, decreases to ([3]; SK-MEL-30, higher concentrations, range given for the most effective substances together): 20–65%
- viability at 10 µM [4]: 96.2%
- viability at 20 µM [4]: 100%
- viability at 50 µM [4]: 95.3%
- viability at 100 µM [4]: 95.9%
- viability at 200 µM [4]: 87.8%
- viability at 300 µM [4]: 79.1%
- viability at 500 µM [4]: 78.2%
